The text below walks through data of patent US9701650B2, “Derivatives of sobetirome” (OREGON HEALTH & SCIENCE UNIVERSITY, priority 2015, dated 2017).

Series [1] is described as follows: pharmacokinetic study of sobetirome in mice (t1/2). Particulars: mouse, in vivo. An excerpt:
(§1) The single time point pilot study was followed up for 11 and 15 vs. sobetirome with an 8-hour time course distribution study in mice. […] The sobetirome AUC, Cmax, and Tmax values in brain, liver and serum resulting from systemic administration of sobetirome, prodrug 11, and prodrug 15 are shown in Table 1 and the curves used to obtain these values are shown in FIGS. 2A, 2B and 2C.

Series [2] is described as follows: 8-hour time course distribution study in mice (sobetirome in brain, liver, serum after ip administration). Particulars: for AUC0-->t of sobetirome: ip 1.5 μmol/kg, 8 hour time course. The format is in vivo.
Description: as §1
Animal Studies: Experimental protocols were in compliance with the National Institutes of Health Guide for the Care and Use of Laboratory Animals and approved by the Oregon Health & Science University Institutional Animal Care & Use Committee. Wild type male C57Bl/6 mice, aged 8-10 weeks, were housed in a climate controlled room with a 12 hour light-dark cycle with ad libitum access to food and water. […] Euthanasia was performed on three mice per time points at the following times (0.15 h, 0.5 h, 1 h, 2 h, 4 h, and 8 h) and the tissues and blood were harvested. Tissues were immediately frozen and blood was kept on ice for a minimum of 30 minutes and then spun down at 7,500×G for 15 minutes. Serum (100 uL) was collected and was stored with tissues at −80° C. until samples were processed.
(§2) Serum Processing: The serum samples were warmed to room temperature and 10 μL of 2.99 μM internal standard (D6-Sobetirome) was added to them. Acetonitrile (500 μL) was added and the sample was vortexed for 20 seconds. The sample was then centrifuged at 10,000×G for 15 minutes at 4° C. Next, 90% of the upper supernatant was transferred to a glass test tube and concentrated using a speedvac for 1.5 hours at 45° C. The dried sample was then dissolved in 400 μL of 50:50 ACN:H2O and vortexed for 20 seconds. The resulting mixture was transferred to an Eppendorf and centrifuged at 10,000×G for 15 minutes. The supernatant was filtered with 0.22 μM centrifugal filters and submitted for LC-MS/MS analysis. The standard curve was made with 100 μL of serum from an 8-10 week old mouse not injected with Sobetirome or prodrug. The processing was performed exactly the same except after filtering the sample was split amongst 6 vials. To 5 out of the 6 vials was added Sobetirome to make final concentrations in matrix of (0.1 pg/μL, 1 pg/μL, 10 pg/μL, 100 pg/μL, and 1000 pg/μL).
(§3) Brain Processing: The brain samples were warmed to room temperature and transferred to a homogenizer tube with 5 GoldSpec ⅛ chrome steel balls (Applied Industrial Technologies). The resulting tube was weighed and then 1 mL of H2O was added, followed by 10 μL of 2.99 μM internal standard (D6-sobetirome). The tube was homogenized with a Bead Bug® for 30 seconds and then transferred to a Falcon tube containing 3 mL of ACN. ACN (1 mL) was used to wash homogenizer tube and the solution was transferred back to the Falcon tube. The sample was then processed using the same method for the serum processing except the sample was concentrated in a glass tube using a speedvac for 4 hours at 45° C.
(§4) Liver Processing: The liver samples were warmed to room temperature and transferred to a homogenizer tube with 5 GoldSpec ⅛ chrome steel balls (Applied Industrial Technologies). The resulting tube was weighed and then 1 mL of H2O was added, followed by 10 μL of 2.99 μM internal standard (D6-Sobetirome). The tube was then homogenized with a Bead Bug for 30 seconds. A small sample (100 μL) was then taken from the homogenized mixture and processed. This was done because the liver levels found in some samples were too high for the LC-MS/MS instrument. The samples were then processed using the serum processing method.

Series [3] is described as follows: single time point biodistribution study in mice (brain, liver, serum sobetirome 30 minutes after ip administration, LC-MS/MS). The following applies: for CNS distribution of sobetirome (in words): ip administration of prodrug, versus sobetirome; for brain sobetirome levels compared to equimolar systemic injection of sobetirome / liver sobetirome levels compared to direct sobetirome injection / serum sobetirome levels compared to direct sobetirome injection: sobetirome measured. Format: in vivo. The method, then: A biodistribution study in mice was performed on each prodrug to determine the brain, liver, and serum levels of sobetirome following a systemic (intraperitoneal) administration. The mice received an equimolar dose (1.5 μmol/kg) of prodrug and one cohort received the same dose of sobetirome as a control. Tissue and blood were collected 30 minutes post-injection and the concentration of sobetirome was determined using an LC-MS/MS. […] The brain/liver sobetirome ratio was increased compared to sobetirome injection by 5- and 10-fold for 11 and 15, respectively (FIG. 1C)
Animal Studies: Experimental protocols were in compliance with the National Institutes of Health Guide for the Care and Use of Laboratory Animals and approved by the Oregon Health & Science University Institutional Animal Care & Use Committee. Wild type male C57Bl/6 mice, aged 8-10 weeks, were housed in a climate controlled room with a 12 hour light-dark cycle with ad libitum access to food and water. Mice were injected once intraperitoneally (IP) with sobetirome and prodrugs at 3.05 μmol/kg. Euthanasia was performed on three mice per time points at the following times (0.15 h, 0.5 h, 1 h, 2 h, 4 h, and 8 h) and the tissues and blood were harvested. Tissues were immediately frozen and blood was kept on ice for a minimum of 30 minutes and then spun down at 7,500×G for 15 minutes. Serum (100 uL) was collected and was stored with tissues at −80° C. until samples were processed.
as §2, §3, §4

Setting [4] is: ip 1.5 μmol/kg, 30 minutes post-injection.
Setting [5] is: male, C57Bl/6, mouse, in vivo, ip.

By half-life is commonly meant the time in which the quantity being followed falls by half. The low end stands for rapid decline, the high end for slow decline. `Cc1cc(OCC(=O)O)cc(C)c1Cc1ccc(O)c(C(C)C)c1` [Sobetirome] gave a half-life in series [1] of 1.5 h. Also, the “AUC0-->t of sobetirome” value in series [2] (mouse brain) amounted to 10.8 ng·h/g; in series [2] (mouse liver), 293 ng·h/g; in series [2] (mouse serum), 68.2 ng·h/g.
`Cc1cc(OCC(=O)OCC[N+](C)(C)C)cc(C)c1Cc1ccc(O)c(C(C)C)c1.[Br-]` [Compound 8, 2-(trimethylamino)ethyl 2-(4-{[4-hydroxy-3-(propan-2-yl)phenyl]methyl}-3,5-dimethylphenoxy)acetate hydrobromide]: the “CNS distribution of sobetirome (in words)” value in series [3] is recorded as “did not improve CNS distribution of sobetirome”.
Regarding `Cc1cc(OCC(=O)OC2CNC2)cc(C)c1Cc1ccc(O)c(C(C)C)c1` [Compound 15, azetidin-3-yl 2-(4-{[4-hydroxy-3-(propan-2-yl)phenyl]methyl}-3,5-dimethylphenoxy)acetate], in series [3] (setting [4]), the “brain sobetirome levels compared to equimolar systemic injection of sobetirome” value is “significant brain sobetirome level increases”, the “liver sobetirome levels compared to direct sobetirome injection” value is on record as “significantly lower” and the “serum sobetirome levels compared to direct sobetirome injection” value was “significantly lower”. Also, the “CNS distribution of sobetirome (in words)” value in series [3] is on record as “improved CNS distribution”. Also, in series [2] (setting [5]), the “Sobetirome Distribution AUCbrain/AUCliver” value is given as 0.20, the “Sobetirome Distribution AUCbrain/AUCserum” value is on record as 1.3 and the “brain/serum ratio of sobetirome based on AUC” value is 1.31. In addition, in series [2] (mouse, in vivo), the “sobetirome exposure in brain compared to direct sobetirome injection” value is “increased sobetirome exposure”, the “sobetirome exposure in liver compared to direct sobetirome injection” value is recorded as “decreased sobetirome exposure” and the “sobetirome exposure in serum compared to direct sobetirome injection” value is “decreased sobetirome exposure”. In series [2] (mouse, in vivo, ip), the “CNS distribution properties compared to 11” value is “superior CNS distribution properties”, the “increase in sobetirome AUC(brain)/AUC(liver) relative to sobetirome” value was “five-fold increase” and the “time to reach Cmax” value was 1 h.
On to `Cc1cc(OCC(=O)OCCN2CCOCC2)cc(C)c1Cc1ccc(O)c(C(C)C)c1` [Compound 9, 2-(morpholin-4-yl)ethyl 2-(4-{[4-hydroxy-3-(propan-2-yl)phenyl]methyl}-3,5-dimethylphenoxy)acetate], for which, in series [3] (setting [4]), the “brain/serum ratio of sobetirome (in words)” value is given as “did not significantly increase” and the “brain sobetirome levels compared to equimolar systemic injection of sobetirome” value is given as “did not significantly increase”.
In the case of `Cc1cc(OCC(=O)OCCN)cc(C)c1Cc1ccc(O)c(C(C)C)c1.Cl` [Compound 11, GC1-ethanolamine], in series [3] (setting [4]), the “brain sobetirome levels compared to equimolar systemic injection of sobetirome” value is “significant brain sobetirome level increases”, the “liver sobetirome levels compared to direct sobetirome injection” value was “significantly lower” and the “serum sobetirome levels compared to direct sobetirome injection” value is on record as “significantly lower”. Further, in series [3], the “CNS distribution of sobetirome (in words)” value was “improved CNS distribution”. In series [2] (mice, full time course), the “sobetirome exposure in brain compared to direct sobetirome injection” value was “increased sobetirome exposure”, the “sobetirome exposure in liver compared to direct sobetirome injection” value is “decreased sobetirome exposure” and the “sobetirome exposure in serum compared to direct sobetirome injection” value is “decreased sobetirome exposure”.
